According to patent publication EP3763226A1, “COMPOSITION FOR REDUCING HAIR LOSS AND IMPROVING HAIR GROWTH IN CASES OF ANDROGENETIC ALOPECIA” (Merz Pharma GmbH & Co. KGaA, priority 2019, dated 2021):

Experiments:
[1] = molecular target: T1, 5-α-Reduktase Typ I (Homo sapiens, UniProt P18405); assay: Cell-free in vitro 5α-reductase type I inhibition assay (HEK I cell homogenate, androstenedione conversion, LC-HRMS); assay type: biochemical; settings: concentration giving 50% inhibition; Abbildung 1; read-out: IC50-Wert für die 5 alpha Reduktase vom Typ I
T1 construct: expressed in transfected cells; host or cells: HEK293 (HEK I), stably transfected; gift of Prof; R. W. Hartmann, Saarland University; particulate fraction of the cell homogenate used
T1 sequence (P18405 1-259): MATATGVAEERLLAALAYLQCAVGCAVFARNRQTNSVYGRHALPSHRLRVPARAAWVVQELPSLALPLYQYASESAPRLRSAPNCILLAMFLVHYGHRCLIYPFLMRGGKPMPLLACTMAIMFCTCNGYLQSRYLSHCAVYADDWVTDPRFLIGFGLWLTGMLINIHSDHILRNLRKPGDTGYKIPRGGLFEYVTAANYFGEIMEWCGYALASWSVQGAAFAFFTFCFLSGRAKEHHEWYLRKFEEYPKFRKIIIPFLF
Protocol: (§1) Die HEK I Zellen exprimieren rekombinante 5 alpha Reduktase vom Typ I, während die HEK II Zellen rekombinante 5 alpha Reduktase vom Typ II exprimieren.
(§2) HEK I und HEK II Zellen wurden in DMEM (Dulbecco's modified eagle medium, ccpro GmbH) (pH 7.4) mit 10 % FCS (Fetal calf serum, PAN), Penicillin/Streptomycin (100 U/ml und 100 µg/ml) und 0.5 mg/ml Geneticin-418-sulfat in einer befeuchteten 5 % CO2 Atmosphäre bei 37°C kultiviert.
(§3) Herstellung der 5-α-Reduktase Typ I und II enthaltenen Zellfraktionen: Für den Zell-freien in vitro assays wurden HEK I oder HEK II geerntet, durch Zentrifugation (500 x g) vom Zellkulturmedium befreit und re-suspended in einem Homogenisierungs-Puffer bestehend aus 50 mM Tris-HCI (pH 7.4), 300 mM Saccharose, 0.1 mM EDTA, 10 mM DTT and 100 µM PMSF. Durch Einfrieren bei - 196 °C und Auftauen auf Eis, wurden die Zellen solubilisiert. Nach einer Inkubations-Zeitraum von 30 min bei 4°C mit 1 mg/ml DNAse in 50 mM MgCl2 und zwischenzeitlich kräftigen Schütteln, wurde das erhaltene Homogenisat bei 20,200 x g in einer gekühlten Zentrifuge für 50 min bei 4°C zentrifugiert. Das Pellet wurde im Homogenisierungs-Puffer re-suspendiert und wieder bei 20,200 x g für 30 Minuten bei at 4°C zentrifugiert. Diese Prozedur wurde zweimal wiederholt. […] Der Protein-Gehalt wurde gemäß der BCA-Methode mit dem kommerziell erhältlichen BCA-Protein Assay Kit von Pierce quantifiziert. […]

[2] = molecular target: T2, 5-α-Reduktase Typ II (Homo sapiens, UniProt P31213); assay: Cell-free in vitro 5α-reductase type II inhibition assay (HEK II cell homogenate, androstenedione conversion, LC-HRMS); assay type: biochemical
T2 sequence (P31213 1-254): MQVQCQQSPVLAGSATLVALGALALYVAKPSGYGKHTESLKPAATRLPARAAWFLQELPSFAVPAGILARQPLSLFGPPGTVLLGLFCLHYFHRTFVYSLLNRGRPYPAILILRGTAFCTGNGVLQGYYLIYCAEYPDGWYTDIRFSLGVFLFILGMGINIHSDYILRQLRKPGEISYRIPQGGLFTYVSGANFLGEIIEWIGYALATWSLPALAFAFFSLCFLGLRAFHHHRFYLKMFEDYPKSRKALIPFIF
Protocol: as §1, §2, §3

[3] = tested on: ex-vivo Kultur von Haarfollikeln; settings: ex vivo culture of hair follicles; cited from earlier work

IC50 [1] | IC50 ([2]; concentration giving 50% inhibition, Abbildung 1, read-out: IC50-Wert für die 5 alpha Reduktase vom Typ II) | Wirkung auf die 5-alpha Reduktase vom Typ II stärker als auf Typ I ([2]; ratio of the concentrations for 50% inhibition, type I vs type II) | Structure (SMILES) | Haarwachstum [3]
376 nM | 1.89 nM | ca. 200 fach | CC(C)(C)NC(=O)[C@H]1CC[C@H]2[C@@H]3CC[C@H]4NC(=O)C=C[C@]4(C)[C@H]3CC[C@]12C [Finasterid] | –
– | – | – | O=C(O[C@@H]1Cc2c(O)cc(O)cc2O[C@@H]1c1cc(O)c(O)c(O)c1)c1cc(O)c(O)c(O)c1 [Epigallocatechin-3-gallate] | stimuliert
